Test results taken from US10487307B2, “Culture method for pluripotent stem cells” (FUJIFILM CORPORATION, priority 2013, dated 2019).

Experiments:
[1] = test system: human iPS cells; assay: Cell adhesiveness evaluation 2 (synthetic peptides added to cells seeded on natural vitronectin); assay type: cell-based; conditions: for adhesion of cells to the natural vitronectin on addition of peptide: 100 μM synthetic polypeptide; for Cell adhesion rate (%): 100 μM synthetic polypeptide in cell suspension, natural vitronectin surface 130 pmol/cm^2, 24 hours, no peptide = 100%, n=3
Protocol: The polypeptides shown in Table 8 were synthesized by an Fmoc solid-phase synthesis method. A surface onto which natural vitronectin was adsorbed at a concentration of 130 pmol/cm^2 was prepared, and then a cell suspension to which 100 μM of the aforementioned synthetic polypeptides were added was seeded into wells at a ratio of 30,000 cells/well. The number of adhesive cells 24 hours after seeding was calculated in the same manner as in <Cell adhesiveness evaluation 1>, and the results are shown in Table 8. In Table 8, the cell adhesion rate is expressed as a ratio calculated by regarding the cell adhesion rate obtained by using a culture solution not containing the synthetic polypeptides as being 100%. n=3.

[2] = test system: human iPS cells ("Tic"); assay: Cell adhesiveness evaluation 1 (ALP activity of adhesive iPS cells); assay type: cell-based; conditions: 30,000 cells/well, 24 hours, natural vitronectin (sample 15) = 100%
Protocol: The cell adhesiveness of human iPS cells (“Tic”: Cell No. JCRB 1331: from National Institute of Biomedical Innovation. [567-0085, 7-6-8 Asagi Saito Ibaraki-City Osaka]) with respect to the aforementioned polypeptides was evaluated in the following manner.
As feeder cells for retaining the human iPS cells, EmbryoMax (registered trademark) (early mouse embryonic fibroblasts: resistant to hygromycin, treated with mitomycin C, derived from C57/BL6, third passage) (Millipore Corporation) was used. By using DMEM (Invitrogen) and a 10% (v/v) fetal bovine serum medium, the feeder cells were cultured for 24 hours and attached to a T25 flask (Corning Incorporated). As a medium for the human iPS cells, the one obtained by adding FGF-2 (Sigma-Aldrich Co, LLC.) to a medium composed as shown in Table 6 at a final concentration of 10 ng/ml was used.
By using the aforementioned medium, the human iPS cells were retained and cultured in a 5% (v/v, the same unit will be used hereinafter) CO2 incubator at 37° C. Except for the day after the seeding of the iPS cells, the medium was replaced every day. The subculture operation was performed by exfoliating the cells by using Dispase II (neutral protease Grade II, Roche) and separating the cells in an appropriate size by a pipetting operation.
The iPS cells cultured as described above were treated with TrypLE Select (Invitrogen) for 5 minutes at 37° C. and separated into a single cell. After being subjected to centrifugation for 2 minutes at 300 rpm, the cells were collected and suspended in TeSR2 (a medium not containing a heterogeneous animal-derived component and a serum component, STEMCELL Technologies.) containing Y-27362 ((R)-(+)-trans-N-(4-pyridyl)-4-(1-aminoethyl)-cyclohexane carboxamide.2HCl.H2O, an Rho binding kinase inhibitor, Wako Pure Chemical Industries, Ltd.) at a final concentration of 10 μM.
Each of RCP-1 to RCP-11, RCP-21, RCP-25, and RCP-26 as control, human vitronectin (extracted from human serum, BD Biosciences), and recombinant laminin (rLaminin-5: Oriental Yeast Co., ltd. and Human Recombinant Laminin-511: BIOLAMINA AB) was added to and suspended in a predetermined buffer (a dialysis buffer used in <GRAVY value and aggregation characteristics> described above for RCP-1 to RCP-11, and PBS for RCP-21, RCP-25, human vitronectin, and recombinant laminin) at the concentration shown in Table 7, thereby preparing samples 1 to 17. The samples were added to the respective wells of a 96-well plate and adsorbed onto the plate by being held for 2 hours at 37° C.
Into the respective wells of the 96-well plate treated with the peptides, iPS cells were seeded at a cell density of 30,000 cells/well. After the cells were cultured for 24 hours, the nonadhesive cells were washed off with PBS, and only the adhesive cells were immobilized by using 4% (v/v) paraformaldehyde (Wako Pure Chemical Industries, Ltd.). By using an Attophos (registered trademark) AP Fluorescent Substrate System (Promega Corporation), the ALP activity was calculated, and from the calibration curve, the number of undifferentiated iPS cells having the ALP activity was calculated. In Table 7, the cell adhesion rate is expressed as a ratio calculated by regarding the cell adhesion rate obtained from the sample 15 using natural vitronectin as being 100%. n=3.

[3] = test system: iPS cells; assay: Growth evaluation, number of cells after 3 days; assay type: cell-based, human; conditions: added amount 1.28 μg/cm^2; 5,000 cells/well; sample 1 (RCP-1) = 100%
Protocol: By adding RCP-1 to RCP-11 and Human Recombinant Laminin-511 as control at the concentration shown in Table 9, samples 1 to 12 were prepared. The samples were seeded into a 96-well plate, onto which each of the polypeptides was adsorbed in the same manner as in <Cell adhesiveness evaluation 1>, at a ratio of 5,000 cells/well and cultured for 3 days in a CO2 incubator at 37° C. The number of cells after 3 days was calculated in the same manner as in <Cell adhesiveness evaluation 1>. In Table 9, the number of cells after 3 days is expressed as a ratio calculated by regarding the number of cells obtained by using the sample 1 as being 100%.

[4] = test system: human iPS cells ("Tic"); assay: Cell growth property evaluation 1 (different media); assay type: cell-based; conditions: for Cell growth rate: laminin 20 μg/ml, 72 hours, RCP-11 with Essential 8 = 100%, n=3
Protocol: Furthermore, for evaluation, human iPS cells (“Tic”) that were retention-cultured as described in <Cell adhesiveness evaluation 1> of reference example were treated with TrypLE Select (Invitrogen) for 5 minutes at 37° C. and separated into a single cell. After being subjected to centrifugation for 2 minutes at 300 rpm, the cells were collected, suspended in each medium, and used for the evaluation in each example. Herein, Y-27362 ((R)-(+)-trans-N-(4-pyridyl)-4-(1-aminoethyl)-cyclohexane carboxamide.2HCl.H2O, an Rho binding kinase inhibitor, Wako Pure Chemical Industries, Ltd.) was added to all of the media at a final concentration of 10 μM.
Each of RCP-11, RCP-5, and recombinant laminin (Human Recombinant Laminin-511: BIOLAMINA AB) as control was added to and suspended in a predetermined buffer (a dialysis buffer used in <GRAVY value and aggregation characteristics> of reference examples for RCP-11 and RCP-5, and PBS for the recombinant laminin) at the final concentration shown in Table 11, thereby preparing polypeptide solutions. The polypeptide solutions were added to the respective wells of a plasma-treated 96-well plate made of polystyrene (BD Falcon) having a plasma-treated cell culture surface and held as they were so as to be adsorbed onto the plate for 2 hours at 37° C. In this way, a peptide-treated 96-well plate having a polypeptide-coated surface was obtained. The iPS cells suspended in the respective media shown in Table 11 were seeded into the respective wells of the obtained peptide-treated 96-well plate at a cell density of 10,000 cells/well. After the cells were cultured for 72 hours, nonadhesive cells were washed off with PBS, and only adhesive cells were immobilized using 4% by mass of paraformaldehyde (Wako Pure Chemical Industries, Ltd.). By using an Attophos (registered trademark) AP Fluorescent Substrate System (Promega Corporation), the ALP activity was calculated, and from the calibration curve, the number of undifferentiated iPS cells having the ALP activity was calculated. In Table 11, the cell adhesion rate is expressed as a ratio calculated by regarding the number of pluripotent stem cells after the culture for 72 hours in a combination of RCP-11 and Essential 8 as being 100%. n=3.
In Table 11, “% by mass” in the concentration of 2-meracptoethanol is a proportion (w/v %) of mass (g) of 2-meracptoethanol per 100 mL of the total volume of the medium at the time of culture.

[5] = test system: iPS cells; assay: Cell growth property evaluation 2 (2-mercaptoethanol concentration in Essential 8); assay type: cell-based, human; conditions: for Cell growth rate: laminin 20 μg/ml, 72 hours
Protocol: A cell culture surface coated with RCP-11 was prepared in the same manner as in <Cell growth property evaluation 1> of Example 1. iPS cells collected in the same manner as in <Cell growth property evaluation 1> were suspended in the respective media composed as shown in Table 12 and seeded into wells at a cell density of 10,000 cells/well. After the cells were cultured for 72 hours, the number of cells were quantified in the same manner as in <Cell growth property evaluation 1>, and the cell growth properties were evaluated based on a cell growth rate which is a ratio calculated by regarding the number of cells cultured using RPC-11 as being 100%.

Row | Substance | adhesion of cells to the natural vitronectin on addition of peptide [1] | Cell adhesion rate (%) [1] [%] | other results
1 | CCTDYTAECKPQVTRGDVFT (Peptide designed for comparative tests (Peptide-5)) | significantly hindered | 70.5 ± 7.1 | –
2 | CCTDYTAECKPQVTRGEVFT (Peptide designed for comparative tests (Peptide-7)) | not hindered | 86.7 ± 7.1 | –
3 | DKKCQCDELCSYYQSCCTDY (Peptide designed for comparative tests (Peptide-4)) | significantly hindered | 63.8 ± 11.6 | –
4 | DQESCKGRCTEGFNVDKKCQ (Peptide designed for comparative tests (Peptide-1)) | not hindered | 91.8 ± 1.2 | –
5 | EGFNVDKKCQCDELCSYYQS (Peptide designed for comparative tests (Peptide-3)) | not hindered | 102.5 ± 4.2 | –
6 | KGRCTEGFNVDKKCQCDELC (Peptide designed for comparative tests (Peptide-2)) | not hindered | 92.7 ± 19.6 | –
7 | Laminin-511: recombinant laminin (Human Recombinant Laminin-511: BIOLAMINA AB) | – | – | Cell adhesion rate (%) ([2]; added amount 5.0 μg/cm^2): 142.0%; Number of cells after 3 days (%) [3]: 56.8%; cell growth properties with Essential 8 or NutriStem not containing 2-mercaptoethanol versus media containing it ([4]; Table 11): a clear correlation could not be confirmed; Cell growth rate ([4]; medium Essential8, 2-mercaptoethanol 0): 45.9%; Cell growth rate ([4]; medium NutriStem, 2-mercaptoethanol 0): 98.8%; Cell growth rate ([4]; medium ReproFF2, 2-mercaptoethanol 102.4 μM (0.0008% by mass)): 93.9%; Cell growth rate ([4]; medium StemPro hESC SFM, 2-mercaptoethanol 100 μM (0.00078% by mass)): 103.7%; Cell growth rate ([4]; medium TeSR2, 2-mercaptoethanol 48.6 μM (0.00038% by mass)): 14.4%; Cell growth rate ([5]; Essential8, 2-mercaptoethanol 0): 45.9%; Cell growth rate ([5]; Essential8, 2-mercaptoethanol 10 μM (0.0000078% by mass)): 48.6%; Cell growth rate ([5]; Essential8, 2-mercaptoethanol 10 μM (0.000078% by mass)): 48.1%; Cell growth rate ([5]; Essential8, 2-mercaptoethanol 100 μM (0.00078% by mass)): 44.6%; Cell growth rate ([5]; Essential8, 2-mercaptoethanol 1 mM (0.0078% by mass)): 40.9%; Cell growth rate ([5]; Essential8, 2-mercaptoethanol 10 mM (0.078% by mass)): 39.3%; dependence of cell growth properties on the concentration of 2-mercaptoethanol ([5]; Table 12): such characteristics were not observed
8 | TAECKPQVTRGDVFTMPEDE (Peptide designed for comparative tests (Peptide-6)) | significantly hindered | 52.7 ± 10.3 | –
9 | TAECKPQVTRGEVFTMPEDE (Peptide designed for comparative tests (Peptide-8)) | not hindered | 83.8 ± 14.8 | –
10 | rLaminin-5: recombinant laminin (rLaminin-5: Oriental Yeast Co., ltd.) | – | – | Cell adhesion rate (%) ([2]; added amount 3.2 μg/cm^2): 155.7%
